# Results published in EP0216127B1, “6-Phenoxymethyl-4-hydroxytetrahydropyran-2-ones, process for their preparation, their use as medicines, pharmaceutical compositions and intermediates” (HOECHST AKTIENGESELLSCHAFT, priority 1985, dated 1987).
# pIC50: −log10 of the molar value. Read-outs that look alike come from different tables or passages of the source.
# What was measured:
# [1] = molecular target: T1, HMG-CoA-Reduktase (Rattus norvegicus, UniProt P51639); test: Inhibition of HMG-CoA reductase activity in solubilised enzyme preparations from rat liver microsomes; type: biochemical, Ratten; conditions: solubilised enzyme from liver microsomes of cholestyramine-induced rats; substrate (S,R)14C-HMG-CoA; mean of 3 parallel samples; read-out: IC50-Wert M
# T1 construct: solubilisierten Enzympräparationen aus Lebermikrosomen von Ratten; from tissue; host or cells: rat liver microsomes (rats induced with cholestyramine after day-night rhythm shift)
# T1 sequence (P51639 1-887): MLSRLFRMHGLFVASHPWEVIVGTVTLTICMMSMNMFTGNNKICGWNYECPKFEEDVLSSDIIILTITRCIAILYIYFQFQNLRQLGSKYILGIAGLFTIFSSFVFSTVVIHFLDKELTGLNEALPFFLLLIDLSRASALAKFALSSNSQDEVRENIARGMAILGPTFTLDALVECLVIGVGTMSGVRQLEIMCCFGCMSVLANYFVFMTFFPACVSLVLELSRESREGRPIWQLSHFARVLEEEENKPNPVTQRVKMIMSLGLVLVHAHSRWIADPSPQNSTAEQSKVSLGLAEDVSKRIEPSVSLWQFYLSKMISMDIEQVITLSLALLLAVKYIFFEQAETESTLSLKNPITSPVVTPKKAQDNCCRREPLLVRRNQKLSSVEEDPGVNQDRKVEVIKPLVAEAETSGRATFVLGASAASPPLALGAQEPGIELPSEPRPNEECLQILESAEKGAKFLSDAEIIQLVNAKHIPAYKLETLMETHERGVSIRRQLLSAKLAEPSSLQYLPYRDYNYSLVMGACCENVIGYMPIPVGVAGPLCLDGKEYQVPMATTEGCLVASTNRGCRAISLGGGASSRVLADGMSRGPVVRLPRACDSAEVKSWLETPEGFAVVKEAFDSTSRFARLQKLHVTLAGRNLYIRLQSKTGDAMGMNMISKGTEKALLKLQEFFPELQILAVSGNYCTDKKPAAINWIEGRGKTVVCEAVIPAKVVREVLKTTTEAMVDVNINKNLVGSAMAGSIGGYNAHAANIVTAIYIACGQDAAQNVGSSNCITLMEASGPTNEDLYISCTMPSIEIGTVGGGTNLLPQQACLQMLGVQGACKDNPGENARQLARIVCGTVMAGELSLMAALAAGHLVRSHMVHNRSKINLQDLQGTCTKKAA
# Description: 1) Inhibierung der HMG-CoA-Reduktase-Aktivität an solubilisierten Enzympräparationen aus Ratten-Lebermikrosomen
# Die HMG-CoA-Reduktase-Aktivität wurde an solubilisierten Enzympräparationen aus Lebermikrosomen von Ratten gemessen, die nach Umstellung im Tag-Nacht-Rhythmus mit Cholestyramin (@Cuemid) induziert wurden. Als Substrat diente (S,R)^14C-HMG-CoA, die Konzentration von NADPH wurde während der Inkubation durch ein regenerierendes System aufrechterhalten. Die Abtrennung von ^14C-Me- valonat von Substrat und anderen Produkten (z.B. ^14C-HMG) erfolgte über Säulenelution, wobei das Elutionsprofil jeder Einzelprobe ermittelt wurde. Auf die ständige Mitführung von ^3H-Mevalonat wurde verzichtet, weil es bei der Bestimmung um die Relativangabe der Hemmwirkung handelt. In eine Versuchsreihe wurden jeweils die enzymfreie Kontrolle, der enzymhaltige Normalansatz (= 100%) und solche mit Präparatezusätzen zusammen behandelt. Jeder Einzelwert wurde als Mittelwert aus 3 Parallelproben gebildet. Die Signifikanz der Mittelwertsunterschiede zwischen präparatefreien und präparatehaltigen Proben wurde nach dem t-Test beurteilt. Nach der oben beschriebenen Methode wurden von den erfindungsgemäßen Verbindungen z.B. folgende Hemmwerte auf die HMG-CoA-Reduktase ermittelt (IC50-Wert M = molare Konzentration der Verbindung, die für eine 50%ige Hemmung erforderlich ist): […]
# [2] = molecular target: T2, HMG-CoA-Reduktase (Mus musculus, UniProt Q01237); test: Suppression or inhibition of HMG-CoA reductase in cell cultures of fibroblasts (L cells); type: cell-based; conditions: 3 h incubation of confluent L-Zellen in lipoprotein-free medium; molar concentration for 50% inhibition of HMG-CoA reductase activity
# T2 construct: dann wurde die HMG-CoA-Reduktaseaktivität der Zellen, modifiziert nach Chang et al; endogenous in cells; host or cells: L cells (fibroblasts)
# T2 sequence (Q01237 1-887): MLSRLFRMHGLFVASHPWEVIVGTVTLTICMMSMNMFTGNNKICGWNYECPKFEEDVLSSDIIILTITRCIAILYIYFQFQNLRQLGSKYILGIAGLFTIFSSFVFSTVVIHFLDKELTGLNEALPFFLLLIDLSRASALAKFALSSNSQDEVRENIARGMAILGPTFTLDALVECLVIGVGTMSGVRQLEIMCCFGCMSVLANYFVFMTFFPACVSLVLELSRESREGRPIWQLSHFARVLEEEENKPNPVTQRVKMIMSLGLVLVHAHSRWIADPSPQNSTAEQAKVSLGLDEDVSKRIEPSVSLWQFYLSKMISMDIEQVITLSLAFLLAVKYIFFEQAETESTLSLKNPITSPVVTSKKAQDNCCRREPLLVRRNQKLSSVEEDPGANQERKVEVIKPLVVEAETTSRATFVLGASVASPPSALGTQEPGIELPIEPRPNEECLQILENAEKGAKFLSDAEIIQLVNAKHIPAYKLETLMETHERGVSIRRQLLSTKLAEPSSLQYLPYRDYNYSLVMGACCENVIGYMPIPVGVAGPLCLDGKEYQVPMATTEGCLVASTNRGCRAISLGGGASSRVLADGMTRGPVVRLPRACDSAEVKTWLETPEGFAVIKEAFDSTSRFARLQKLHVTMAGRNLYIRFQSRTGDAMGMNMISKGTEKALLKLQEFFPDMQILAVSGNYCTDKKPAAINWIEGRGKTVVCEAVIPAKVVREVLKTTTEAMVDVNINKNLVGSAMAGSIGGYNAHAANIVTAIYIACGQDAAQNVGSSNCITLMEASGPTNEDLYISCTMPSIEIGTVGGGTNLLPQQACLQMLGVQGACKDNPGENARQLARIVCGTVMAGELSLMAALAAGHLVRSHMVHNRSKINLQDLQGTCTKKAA
# Description: 2. Supprimierung bzw. Inhibierung der HMG-CoA-Reduktase in Zellkulturen von Fibroblasten
# Monolayers von Fibroblasten (L-Zellen) in lipoproteinfreiem Nährmedium wurden mit entsprechenden Konzentrationen der Prüfsubstanzen eine bestimmte Zeit (z.B. 3 Stunden) inkubiert, dann wurde die HMG-CoA-Reduktaseaktivität der Zellen, modifiziert nach Chang et al. (J. Biol. Chem. 256, 6174 (1981) bestimmt. Dazu wurden die Zellextrakte mit D, L [^3H]-HMG-CoA inkubiert und das unter der Einwirkung der vorhandenen HMG-CoA-Reduktaseaktivität aus den Zellen gebildete Produkt [3H]-Mevalonat nach Cyclisierung zu [^3H]-Mevalonolacton dünnschichtchromatographisch vom Ausgangsprodukt getrennt und unter Verwendung eines internen Standards von ^14C-Mevalonat die Menge des in der Zeiteinheit gebildeten [3H]-Mevalonats, bezogen auf Zellproteinmenge bestimmt. Die unter Zusatz einer bestimmten Konzentration eines Prüfpräparates gefundene HMG-CoA-Reduktaseaktivität der Zellkultur wurde prozentual auf jene einer gleichbehandelten ohne Prüfpräparat, jedoch gleicher Lösungsmittelkonzentration, bezogen.
# Unter der Bedingung einer dreistündigen Inkubationszeit konfluenter L-Zellen im lipoproteinfreien Nährmedium mit den untersuchten Verbindungen wurden folgende für eine 50%ige Hemmung der HMG-CoA-Reduktaseaktivität (ICso) erforderliche molare Konzentration der Prüfpräparate ermittelt: […]
# [3] = an der Ratte; cited from earlier work
# [4] = im Humanversuch; cited from earlier work
pIC50 [1],pIC50 [2],Structure (SMILES),further results
6.34,4.00,C=CCc1cc(Cl)cc(CCCOc2ccc(F)cc2)c1OC[C@@H]1C[C@@H](O)CC(=O)O1 [44 j],
6.82,,O=C1C[C@H](O)C[C@@H](COc2c(Cl)cc(Cl)cc2C(CCOc2ccc(F)cc2)c2ccc(F)cc2)O1 (stereo partly drawn) [44 dd],
7.00,,Cc1cc(Cl)cc(C(c2ccc(F)cc2)c2ccc(F)cc2)c1OC[C@@H]1C[C@@H](O)CC(=O)O1 [44 bb],
7.30,4.85,Cc1cc(Cl)cc(CCCOc2ccc(Cl)cc2)c1OC[C@@H]1C[C@@H](O)CC(=O)O1 [44 x],
6.30,,Cc1cc(C)c(OC[C@@H]2C[C@@H](O)CC(=O)O2)c(CCOc2ccc(F)cc2)c1 [44 t],
7.30,,Cc1cc(C(c2ccc(F)c(C)c2)c2cc(Cl)cc(C)c2OC[C@@H]2C[C@@H](O)CC(=O)O2)ccc1F [44 hh],
6.40,,Cc1cc(C)c(OC[C@@H]2C[C@@H](O)CC(=O)O2)c(Cc2ccc(F)cc2)c1 [44 s],
7.12,5.00,Cc1cc(Cl)cc(CCCOc2ccc(F)cc2)c1OC[C@@H]1C[C@@H](O)CC(=O)O1 [44 i],
5.15,,CC(C)(C)C(=O)OCCCc1cc(Cl)cc(CCCOc2ccc(F)cc2)c1OC[C@@H]1C[C@@H](O)CC(=O)O1 [44 l],
7.12,4.82,Cc1cc(Cl)cc(CC2CCCCC2)c1OC[C@@H]1C[C@@H](O)CC(=O)O1 [44 y],
6.28,,Cc1cc(C)c(OC[C@@H]2C[C@@H](O)CC(=O)O2)c(CCc2ccc(F)cc2)c1 [44 m],
6.72,,O=C1C[C@H](O)C[C@@H](COc2c(Cl)cc(Cl)cc2-c2ccccc2)O1 [44 mm],

# Continued, compound first:
Structure (SMILES),pIC50 [1],pIC50 [2],further results
CC(O)(CC(=O)O)CC(=O)O [3-Hydroxy-3-methyl-glutarsäure],,,cholesterinsenkende Wirkung [3]: signifikante cholesterinsenkende Wirkung; cholesterinsenkende Wirkung [4]: signifikante cholesterinsenkende Wirkung
Cc1cc(C)c(OC[C@@H]2C[C@@H](O)CC(=O)O2)c(C(CC(C)C)c2ccc(F)cc2)c1 (stereo partly drawn) [44 u],6.85,,
Cc1cc(C)c(OC[C@@H]2C[C@@H](O)CC(=O)O2)c(CC2CCCCC2)c1 [44 z],7.00,,
Cc1cc(C)c(OC[C@@H]2C[C@@H](O)CC(=O)O2)c(C(c2ccc(F)cc2)c2ccc(F)cc2)c1 [44 q],7.15,4.30,
O=C1C[C@H](O)C[C@@H](COc2c(Cl)cc(Cl)cc2CC2CCCCC2)O1 [44 kk],7.60,,
COc1ccc(C(c2ccc(F)cc2)c2cc(C)cc(C)c2OC[C@@H]2C[C@@H](O)CC(=O)O2)cc1 (stereo partly drawn) [44 v],7.00,4.40,
Cc1cc(C)c(OC[C@@H]2C[C@@H](O)CC(=O)O2)c(C(C)c2ccc(F)cc2)c1 (stereo partly drawn) [44 r],6.80,,
O=C1C[C@H](O)C[C@@H](COc2c(Cl)cc(Cl)cc2C(=O)C2CCCCC2)O1 [44 nn],6.72,,
